Laboratory results published in patent US9834558B2, “Substituted bridged urea analogs as sirtuin modulators” (GLAXOSMITHKLINE LLC, priority 2013, dated 2017).
Where a name gives a salt, the structure may show the parent alone.

What was measured:
[1] = biological target: T1, full-length hSIRT1 wild-type (Homo sapiens, UniProt Q96EB6); experiment: SIRT1 activation and inhibition assays (OAcADPr mass spectrometry assay), wild-type enzyme; type: biochemical
T1 construct: Full-length human SIRT1 (hSIRT1) proteins were expressed with a C-terminal His6 tag; His6 (C); made in house
T1 sequence (Q96EB6 1-747): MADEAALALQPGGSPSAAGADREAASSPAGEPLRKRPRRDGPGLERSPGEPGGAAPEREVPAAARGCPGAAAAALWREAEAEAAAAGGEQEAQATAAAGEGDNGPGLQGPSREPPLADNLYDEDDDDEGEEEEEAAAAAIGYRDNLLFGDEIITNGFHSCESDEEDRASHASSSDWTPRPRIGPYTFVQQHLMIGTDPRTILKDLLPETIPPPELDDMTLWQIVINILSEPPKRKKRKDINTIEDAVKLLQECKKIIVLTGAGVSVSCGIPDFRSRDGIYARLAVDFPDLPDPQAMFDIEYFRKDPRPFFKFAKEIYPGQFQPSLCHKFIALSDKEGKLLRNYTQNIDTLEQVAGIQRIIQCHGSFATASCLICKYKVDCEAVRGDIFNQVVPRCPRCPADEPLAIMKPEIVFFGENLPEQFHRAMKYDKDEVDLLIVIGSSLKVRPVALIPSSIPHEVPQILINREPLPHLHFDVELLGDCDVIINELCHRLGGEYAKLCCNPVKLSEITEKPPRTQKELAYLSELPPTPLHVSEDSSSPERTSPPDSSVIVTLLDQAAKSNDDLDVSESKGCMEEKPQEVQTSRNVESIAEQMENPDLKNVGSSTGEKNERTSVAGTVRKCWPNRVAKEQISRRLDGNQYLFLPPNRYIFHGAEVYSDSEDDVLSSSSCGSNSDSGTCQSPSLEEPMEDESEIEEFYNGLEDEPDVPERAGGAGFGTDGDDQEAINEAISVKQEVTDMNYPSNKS
Method: Final concentrations of the PNC1/GDH coupling system components used were 20 units/mL bovine GDH (Sigma-Aldrich), 1 uM yeast PNC1, 3.4 mM a-ketoglutarate, and 220 μM NADH or NADPH. An extinction coefficient of 6.22 mM^−1 cm^−1 and a pathlength of 0.81 cm was used to convert the absorbance at 340 nm to product concentration for the 150 uL reactions used.
Substrate KM determinations were performed by varying one substrate concentration at a fixed, saturating concentration of the second substrate. SIRT1 activation and inhibition assays were run in reaction buffer with 0.05% BSA at 25° C. and analyzed using the OAcADPr assay. Enzyme and compound were pre-incubated for 20 minutes before addition of substrates. […] The dose-dependence of five compounds was tested and the fold-activation data were described by Eq. 1
[formula] where vx/v0 is the ratio of the reaction rate in the presence (vx) versus absence (v0) of activator (X), RVmax is the relative velocity at infinite activator concentration, EC50 is the concentration of activator required to produce one-half RVmax and b is the minimum value of vx/v0.

SIRT1 = biological target: T2, SIRT1 (Homo sapiens, UniProt Q96EB6); experiment: Trp mass spectrometry assay of SIRT1 activation; type: biochemical; conditions: for Tryp AVG EC1.5 (μM): concentration giving 150% activation of SIRT1, Trp peptide substrate; for TRP Activity (EC1.5) / TRP MAX RESP (percent maximum fold activation) / Emax: Trp peptide assay; for TRP Activity (EC1.5): EC1.5 = concentration that results in 150% activation of SIRT1; for TRP MAX RESP (percent maximum fold activation) / Emax: maximum activity relative to control (100%); for Emax: read-out: TRP MAX RESP (percent maximum fold activation)
T2 sequence (Q96EB6 1-747): T1 sequence (Q96EB6 1-747)
Outline: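 Activation read-out: mass-spec measurement of O-acetyl-ADP-ribose or deacetylated Trp peptide versus compound-free controls, giving EC1.5 and Percent Maximum Activation. Reactions ran 25 min at 25 °C, pH 7.5, with 120 μM βNAD+, 0.5 μM acetylated p53-derived peptide and 10 nM His-tagged SIRT1.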

| Structure (SMILES) | TRP Activity (EC1.5) (SIRT1) | Emax (SIRT1) | other results |
| --- | --- | --- | --- |
| O=C(Nc1ccccn1)N1c2nc(-c3cccc(C(F)(F)F)c3)ccc2N2CC[C@H]1C2 [Example 7] |  |  | RVmax fold shift [1]: 1.00 |
| Cc1cnc2c(NC(=O)N3c4nc(-c5cccc(C(F)(F)F)c5)ccc4N4CC[C@H]3C4)cccc2n1 [Example 8] |  |  | RVmax fold shift [1]: 1.00 |
| O=C(Nc1ccccn1)N1c2nc(-c3cccc(C(F)(F)F)c3)ccc2N2CC[C@@H]1C2 [Example 823] |  |  | Tryp AVG EC1.5 (μM) (SIRT1): A (A (EC1.5<1 μM)) |
| O=C(Nc1ccncc1)N1c2nc(-c3cccc(C(F)(F)F)c3)ccc2N2CC[C@@H]1C2 [Example 824] |  |  | Tryp AVG EC1.5 (μM) (SIRT1): A (A (EC1.5<1 μM)) |
| O=C(Nc1ccccn1)N1c2nc(N3CC[C@H](C(F)(F)F)C3)ccc2N2CCC[C@H]1C2 [drawing 1101, (9S)-N-(pyridin-2-yl)-5-[(3S)-3-(trifluoromethyl)pyrrolidin-1-yl]-1,6,8-triazatricyclo[7.3.1.0 {2,7}]trideca-2(7),3,5-triene-8-carboxamide] | B (B (EC1.5 1-25 μM)) |  |  |
| O=C(Nc1ccccn1)N1c2nc(N3CCC[C@H](C(F)(F)F)C3)ccc2N2CCC[C@H]1C2 [drawing 1118, (9S)-N-(pyridin-2-yl)-5-[(3S)-3-(trifluoromethyl)piperidin-1-yl]-1,6,8-triazatricyclo[7.3.1.0 {2,7}]trideca-2(7),3,5-triene-8-carboxamide] | A (A (EC1.5<1 μM)) |  | TRP MAX RESP (percent maximum fold activation) (SIRT1): A (A (Fold activation ≧150%)) |
| O=C(Nc1ccccn1)N1c2nc(N3CCC[C@H](C(F)(F)F)C3)ccc2N2CCC[C@H]1C2 [drawing 1172, (9S)-N-(pyridin-2-yl)-5-[(3S)-3-(trifluoromethyl)piperidin-1-yl]-1,6,8-triazatricyclo[7.3.1.0 {2,7}]trideca-2(7),3,5-triene-8-carboxamide] | B (B (EC1.5 1-25 μM)) | > 150% |  |
| O=C(Nc1ccc(F)cn1)N1c2nc(N3CCC[C@H](C(F)(F)F)C3)ccc2N2CCC[C@H]1C2 [drawing 1177, (9S)-N-(5-fluoropyridin-2-yl)-5-[(3S)-3-(trifluoromethyl)piperidin-1-yl]-1,6,8-triazatricyclo[7.3.1.0 {2,7}]trideca-2(7),3,5-triene-8-carboxamide] | A (A (EC1.5<1 μM)) | > 150% |  |
| O=C(Nc1ccc(F)cn1)N1c2nc(N3CCC[C@H](C(F)(F)F)C3)ccc2N2CCC[C@H]1C2 [drawing 1208, (9S)-N-(5-fluoropyridin-2-yl)-5-[(3S)-3-(trifluoromethyl)piperidin-1-yl]-1,6,8-triazatricyclo[7.3.1.0 {2,7}]trideca-2(7),3,5-triene-8-carboxamide] | B (B (EC1.5 1-25 μM)) |  | TRP MAX RESP (percent maximum fold activation) (SIRT1): A (A (Fold activation ≧150%)) |
| O=C(Nc1ccccn1)N1c2nc(N3CC[C@H](C(F)(F)F)C3)ccc2N2CCC[C@H]1C2 [drawing 1225, (9S)-N-(pyridin-2-yl)-5-[(3S)-3-(trifluoromethyl)pyrrolidin-1-yl]-1,6,8-triazatricyclo[7.3.1.0 {2,7}]trideca-2(7),3,5-triene-8-carboxamide hydrochloride] |  | > 150% | TRP Activity (EC1.5) (SIRT1; hydrochloride): A (A (EC1.5<1 μM)) |
| O=C(Nc1cnccn1)N1c2nc(N3CCO[C@H](C(F)(F)F)C3)ccc2N2CC[C@H]1C2 [drawing 1226, (9S)-N-(pyrazin-2-yl)-5-[(2S)-2-(trifluoromethyl)morpholin-4-yl]-1,6,8-triazatricyclo[7.2.1.0 {2,7}]dodeca-2(7),3,5-triene-8-carboxamide] | B (B (EC1.5 1-25 μM)) | > 150% |  |
| O=C(Nc1cnccn1)N1c2nc(N3CCO[C@H](C(F)(F)F)C3)ccc2N2CC[C@H]1C2 [drawing 1227, (9S)-N-(pyrazin-2-yl)-5-[(2S)-2-(trifluoromethyl)morpholin-4-yl]-1,6,8-triazatricyclo[7.2.1.0 {2,7}]dodeca-2(7),3,5-triene-8-carboxamide] | A (A (EC1.5<1 μM)) |  | TRP MAX RESP (percent maximum fold activation) (SIRT1): A (A (Fold activation ≧150%)) |
| COC(=O)CNC(=O)c1ccc2c(n1)N(C(=O)Nc1ccccn1)[C@H]1CCN2C1 [methyl 2-{[(9S)-8-[(pyridin-2-yl)carbamoyl]-1,6,8-triazatricyclo[7.2.1.0^{2,7}]dodeca-2(7),3,5-trien-5-yl]formamido}acetate] | B (B (EC1.5 1-25 μM)) | > 150% |  |
| COC(=O)c1cc(-c2ccc3c(n2)N(C(=O)Nc2cnccn2)[C@H]2CCN3C2)ccn1 [methyl 4-[(9S)-8-[(pyrazin-2-yl)carbamoyl]-1,6,8-triazatricyclo[7.2.1.0 {2,7}]dodeca-2(7),3,5-trien-5-yl]pyridine-2-carboxylate] | B (B (EC1.5 1-25 μM)) | > 150% |  |
